{"source": "patent US20080305118A1", "about": "“Treatment Of Type 1 Diabetes With Inhibitors Of Macrophage Migration Inhibitory Factor” (The Feinstein Institute for Medical Research, priority 2004, published 2008)", "key": {"iNOS": {"test_system": "iNOS", "test": "Intracellular iNOS expression, cell-based ELISA", "assay_type": "in vivo, mouse", "details": "macrophages from treated animals vs diabetic animals; FIG. 5A", "procedure": "Cell incubation and determination of pro-inflamatory mediators. Resident peritoneal cells (PC), spleen mononuclear cells (SMNC), and pancreatic islets were isolated from individual anti-MIF IgG-treated, ISO-1-treated or control diabetic mice on day 15 after the first injection of STZ, as well as from normal untreated animals. […] Concentration of bioactive TNF-α in culture supernatant was determined as previously described (22) using a cytolytic bioassay with actinomycin D-treated fibrosarcoma cell line L929. Nitrite accumulation, an indicator of NO production, was determined in cell culture supernatant using the Griess reaction (22). The expression of intracellular MIF, IFN-γ, MHC II, or iNOS was determined by slight modification of cell-based ELISA protocol (23). […] After washing, the cells were incubated for 1 h with the corresponding secondary antibody (goat anti-rabbit Ig(H+L)-HRP, goat anti-rat Ig(H+L)-HRP or goat anti-mouse Ig(F(ab′)2-specific)-HRP washed again and incubated for 15 min at room temperature in dark with 50 μl of a solution containing 0.4 mg/ml OPD (Sigma), 11.8 mg/ml Na2HPO4×2H2O, 7.3 mg/ml citric acid and 0.015% H2O2. The reaction was stopped with 3N HCl, and the absorbance was measured in a microplate reader at 492 nm in a Titertek microplate reader (Flow)."}, "[1]": {"test_system": "MLD-STZ-induced diabetic mice", "test": "MLD-STZ-induced diabetes, weekly blood glucose, prophylactic treatment", "assay_type": "in vivo, mouse", "details": "CBA/H mice; prophylactic i.p. treatment; FIG. 2B", "procedure": "Diabetes induction and in vivo treatments. Diabetes was induced in adult male mice with multiple subtoxic doses of streptozotocin (MLD-STZ, 40 mg/kg body wt/day i.p. for five consecutive days) as described (21). The impact of polyclonal antibody against MIF was studied by i.p. injection of mice (5-10 per treatment group) with 5 mg/kg of rabbit IgG antibody against mouse […] on days −3, −1, 2 and 5 in relation to the first STZ dose. The effect of ISO-1 was studied by i.p. injection of the drug at a dose of 1 mg/mouse/day, for 14 consecutive days, starting 3 days prior to the first injection with STZ. Control animals received either nonimmune IgG or ISO-1 diluent (DMSO/H2O). Mice were monitored for diabetes by weekly measurement of blood glucose levels using a glucometer (Sensimac®, Imaco, Ludersdorf, Germany). Clinical diabetes was defined by hyperglycemia in non-fasted animals (blood glucose over 11.8 mmol/l)."}, "[2]": {"test_system": "spleen mononuclear cells (SMNC)", "test": "Ex vivo spontaneous adhesion assay (crystal violet) after in vivo treatment", "parameters": "species or system mouse", "details": "SMNC from mice treated in vivo, FIG. 3B", "procedure": "(§1) Ex vivo lymphoproliferative response and adhesion assay. Spontaneous proliferation of SMNC was determined by incubation of cells (5×10^5/well) from each individual animal in 96-well microplates with 1 μCi ^3H-thymidine (^3H-TdR, ICN). Incorporated radioactivity was measured after 24 h in a Beckman liquid scintillation counter. The analysis of spontaneous adhesion of SMNC (2.5×10^5/well) to a monolayer of L929 fibroblasts or plastic was performed by using crystal violet assay as previously described (21). The absorbance corresponding to the number of adherent cells, was measured at 570 nm."}, "[3]": {"test_system": "pancreatic islets of MLD-STZ diabetic mice", "test": "Histological examination of pancreas, insulitis score", "assay_type": "in vivo, mouse", "details": "CBA/H mice; day 15; FIG. 2D", "procedure": "Histological and immunohistochemical examination of pancreas. Pancreata were fixed in neutral buffered formalin and then embedded in paraffin. The fixed blocks were sectioned (7 μm thick) and haematoxylin and eosin staining was performed to assess the incidence and degree of inflammatory changes. Insulitis scoring was performed as previously described (10, 11) by examining at least 15 islets per mouse and graded in a blinded fashion as follows: 0, no infiltrate; 1, peri-ductal infiltrate; 2, peri-islet infiltrate; 3, intraislet infiltrate; and 4, intraislet infiltrate associated with β-cell destruction. At least 15 islets were counted for each mouse. A mean score for each pancreas was calculated by dividing the total score by the number of islets examined. Insulitis scores (IS) are expressed as mean values±SD. Immunohistochemistry was performed on paraffin-embedded sections of formalin-fixed tissue using a previously described microwave-based method (24). For MIF immunostaining, a polyclonal rabbit anti-MIF IgG and control rabbit IgG were used. The examined area of the islet was outlined, and the percentage of MIF-positive islet cells was measured using quantitative Image Analysis System (Optima 6.5, Media Cybernatics, Silver Springs, Md.)."}, "TNF-α": {"test_system": "TNF-α", "test": "Ex vivo TNF-α production, L929 cytolytic bioassay of culture supernatants", "assay_type": "in vivo, mouse", "details": "day 15, 48 h culture, FIG. 4", "procedure": "Cell incubation and determination of pro-inflamatory mediators. Resident peritoneal cells (PC), spleen mononuclear cells (SMNC), and pancreatic islets were isolated from individual anti-MIF IgG-treated, ISO-1-treated or control diabetic mice on day 15 after the first injection of STZ, as well as from normal untreated animals. SMNC (5×10^6/well) prepared by Ficoll gradient centrifugation, resident PC (2.5×10^5/well) collected by peritoneal lavage with cold PBS, or pancreatic islets (150-200 islets/well) prepared by collagenase digestion and density gradient purification as described (22), were incubated in 24-well Limbro culture plates in 1 ml of RPMI-1640 culture medium containing 5% fetal bovine serum (FBS) and cell supernatants were collected after 48 h. Concentration of bioactive TNF-α in culture supernatant was determined as previously described (22) using a cytolytic bioassay with actinomycin D-treated fibrosarcoma cell line L929. Nitrite accumulation, an indicator of NO production, was determined in cell culture supernatant using the Griess reaction (22). The expression of intracellular MIF, IFN-γ, MHC II, or iNOS was determined by slight modification of cell-based ELISA protocol (23). Spleen MNC (5×10^5/well) or PC (2.5×10^5/well), were allowed to adhere to poly-L-lysine-precoated 96-well microplates. Following fixation with 4% paraformaldehyde, and washing with 0.1% Triton X-100 in PBS (T/PBS), endogenous peroxidase was quenched with 1% H2O2 in T/PBS, and reaction blocked for 1 h at 37° C. with 10% FBS in T/PBS. […] After washing, the cells were incubated for 1 h with the corresponding secondary antibody (goat anti-rabbit Ig(H+L)-HRP, goat anti-rat Ig(H+L)-HRP or goat anti-mouse Ig(F(ab′)2-specific)-HRP washed again and incubated for 15 min at room temperature in dark with 50 μl of a solution containing 0.4 mg/ml OPD (Sigma), 11.8 mg/ml Na2HPO4×2H2O, 7.3 mg/ml citric acid and 0.015% H2O2. The reaction was stopped with 3N HCl, and the absorbance was measured in a microplate reader at 492 nm in a Titertek microplate reader (Flow)."}, "[4]": {"test_system": "spleen mononuclear cells (SMNC)", "test": "Ex vivo lymphoproliferative response (3H-thymidine incorporation) after in vivo treatment", "parameters": "species or system mouse", "details": "CBA/H mice treated in vivo; splenocytes day 15 after MLD-STZ; FIG. 3A", "procedure": "as §1"}, "MIF tautomerase": {"target": "T1, MIF tautomerase (Homo sapiens, UniProt P14174)", "T1 sequence (P14174 2-115 limits assumed)": "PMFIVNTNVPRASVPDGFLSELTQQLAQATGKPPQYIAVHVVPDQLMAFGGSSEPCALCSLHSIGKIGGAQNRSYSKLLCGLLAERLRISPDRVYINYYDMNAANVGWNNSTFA", "details": "reference (20); cited from earlier work"}, "[5]": {"details": "cells from mice treated in vivo"}}}
{"smiles": "COC(=O)C[C@@H]1CC(c2ccc(O)cc2)=NO1", "note": "(racemic) [ISO-1, (S,R)-3-(4-hydroxyphenyl)-4,5-dihydro-5-isoxazole acetic acid methyl ester]", "values": [{"measurement": "intracellular expression of iNOS in macrophages", "setting": "iNOS", "result": "significantly reduced"}, {"measurement": "MLD-STZ-induced hyperglycemia (blood glucose levels)", "setting": "[1]", "result": "remained euglycemic"}, {"measurement": "spontaneous adhesion of SMNC to plastic", "setting": "[2]", "result": "significantly inhibited"}, {"measurement": "adhesion of SMNC to fibroblasts", "setting": "[2]; L929 fibroblasts", "result": "significantly inhibited"}, {"measurement": "degree of islet infiltration (insulitis)", "setting": "[3]", "result": "attenuated inflammation of the islets"}, {"measurement": "TNF-α production by peritoneal macrophages", "setting": "TNF-α; [5]", "result": "down-regulated"}, {"measurement": "TNF-α production by spleen MNC", "setting": "TNF-α; [5]", "result": "down-regulated"}, {"measurement": "TNF-α production by pancreatic islet cells", "setting": "TNF-α; islets from mice treated in vivo", "result": "down-regulated"}, {"measurement": "SMNC proliferation, 3H-thymidine incorporation", "setting": "[4]", "result": "25637±2018", "unit": "cpm"}, {"measurement": "MIF tautomerase and biological activity", "setting": "MIF tautomerase", "result": "inhibits"}]}
